Test results taken from US20220257777A1, “HSP90-BINDING CONJUGATES AND COMBINATION THERAPIES THEREOF” (TVA (ABC), LLC, priority 2019, published 2022).
Read-outs that look alike come from different tables or passages of the source. Marks after values point to notes of the source that are not given here.

Assays:
[1] = Levels of Conjugate 1 and SN-38 in patient tumor biopsy and plasma at 24 h; assay type: in vivo, human
Method: A pancreatic cancer patient received Conjugate 1 at a dose of 150 mg/m^2 and underwent a tumor biopsy to determine Conjugate 1 and SN-38 levels in tumor and plasma. Samples were taken 24 h after the second dose of 150 mg/m^2 Conjugate 1 from a liver metastasis.
Conjugate 1 and SN-38 levels in tumor are much higher than the levels in plasma.

[2] = Tumor exposure of Conjugate 1 and SN-38 in H1975 mouse xenograft model at 24 h; assay type: in vivo; details: for SN-38 in tumor at 24 h: H1975 model; for concentration at 24 h: mouse, in vivo
[3] = cited from earlier work; for Ratio of tumor level/plasma level: after Onivyde treatment at 72 h; for Amount in Tumor: patient biopsies after Onivyde treatment at 72 h (13 patients); for Amount in Plasma: patients after Onivyde treatment at 72 h (13 patients)
[4] = Phase 1/2a study, plasma pharmacokinetics of Conjugate 1 and SN-38; assay type: in vivo, human
From the text: (§1) In a Phase 1/2a study of Conjugate 1, patients received weekly Conjugate 1 treatment for 3 of 4 weeks in a 28-day cycle. The patients have histologically or cytologically confirmed advanced solid tumors. Their tumor types included anus, breast, cholangiocarcinoma, colon, Ewing sarcoma, liver, lung, neuroendocrine (unknown primary), ovary, pancreas, salivary gland, and sarcoma. They have received one or more prior lines of anticancer therapy. The patients received flat dosings or dosings based on body surface area (BSA). The doses included 30 mg, 60 mg, 120 mg, 240 mg, 360 mg, 175 mg/m^2, and 200 mg/m^2. […] BSA-based dosing will be used for future studies.
To study pharmacokinetics (PK) profile, multiple plasma samples were collected to measure Conjugate 1 and SN-38 concentrations. […] Elimination half-life was ˜10 hours across all dose ranges. Free SN-38 levels were generally low. AUC is <2% of the conjugate (Conjugate 1) AUC.

[5] = tested on: H1975 (NSCLC) mouse xenograft; assay: Efficacy in H1975 (NSCLC) mouse xenograft model; assay type: in vivo
[6] = tested on: advanced solid tumors; assay: Phase 1/2a study, tumor response; assay type: in vivo, human
From the text: as §1
120-360 mg flat dose and 175 mg/m2 BSA dose were associated with stable disease that was maintained for ≥12 weeks.

[7] = Phase 1/2a study, maximum tolerated dose and adverse events; assay type: in vivo, human
From the text: as §1
AEs are well-managed with dose modification.

[8] = patients dosed with Conjugate 1, plasma

SMILES: CCc1c2c(nc3ccc(O)cc13)-c1cc3c(c(=O)n1C2)COC(=O)[C@]3(O)CC [SN-38, reference compound]
- Amount in Plasma ([1]; at 24 h, average of 5 patients dosed at 175 mg/m^2 Conjugate 1): 25.5* nM
- Ratio of tumor level/plasma level ([1]; at 24 h, tumor at 150 mg/m^2, plasma at 175 mg/m^2 Conjugate 1): About 3.4
- Amount in Tumor ([1]; pancreatic cancer patient, liver metastasis biopsy, 24 h after the second dose of 150 mg/m^2 Conjugate 1): 86.6 nM
- SN-38 in tumor at 24 h ([2]; Conjugate 1 50 mg/kg): 98 nM
- SN-38 in tumor at 24 h ([2]; Conjugate 1 100 mg/kg): 18.4 nM
- SN-38 in tumor at 24 h ([2]; Conjugate 1 150 mg/kg): 221 nM
- Ratio of tumor level/plasma level [3]: About 4.2
- Amount in Tumor [3]: 24.5 nM
- Amount in Plasma [3]: 0.0059 µM
- Free SN-38 AUC as share of the conjugate (Conjugate 1) AUC [4, 8]: < 2%
- Free SN-38 levels / systemic exposure to free SN-38 [4, 8]: generally low
- Free SN-38 levels / systemic exposure to free SN-38 ([4]; patients dosed with Conjugate 1, plasma, listed as SN-28): low

SMILES: CCc1c2c(nc3ccc(OC(=O)N4CCC(N5CCCCC5)CC4)cc13)-c1cc3c(c(=O)n1C2)COC(=O)[C@]3(O)CC [Irinotecan]
- Ratio of tumor level/plasma level [3]: About 0.5
- Ratio of tumor level/plasma level ([3]; listed as irinotecan): about ½
- Amount in Tumor [3]: 4043 nM
- Amount in Plasma [3]: 7.921 µM

SMILES: CCc1c2c(nc3ccc(OC(=O)N4CCC(CCn5ccc6cc(-n7c(O)nnc7-c7cc(C(C)C)c(O)cc7O)ccc65)CC4)cc13)-c1cc3c(c(=O)n1C2)COC(=O)[C@]3(O)CC [Conjugate 1, (S)-4,11-diethyl-4-hydroxy-3,14-dioxo-3,4,12,14-tetrahydro-1H-pyrano[3′,4′:6,7]indolizino[1,2-b]quinolin-9-yl 4-(2-(5-(3-(2,4-dihydroxy-5-isopropylphenyl)-5-hydroxy-4H-1,2,4-triazol-4-yl)-1H-indol-1-yl)ethyl)piperidine-1-carboxylate]
- SN-38 tumor level relative to SN-38 tumor level of patients who received Onivyde ([1]; human, in vivo, 24 h): about 3.5 fold
- Efficacy in the xenograft model ([5]; weekly dose of 150 mg/kg): tumor regression
- Efficacy in the xenograft model ([5]; weekly doses of 72 mg/kg and 100 mg/kg): significant efficacy
- concentration at 24 h ([2]; 50 mg/kg): 163 nM
- concentration at 24 h ([2]; 100 mg/kg): 149 nM
- concentration at 24 h ([2]; 150 mg/kg): 4990 nM
- half-life ([4]; human, in vivo, Elimination half-life): ~10 h
- Dose proportionality of PK ([4]; patients, 30 mg to 200 mg/m^2): non-linear PK at lower doses, but greater proportionality was observed at higher doses
- Linker stability in circulation ([4]; patients, PK analyses): stable in circulation
- Time stable disease was maintained ([6]; 120-360 mg flat dose and 175 mg/m2 BSA dose): ≥ 12 weeks
- Patients achieving partial response (PR; reduction of tumor size by 30% or more) ([6]; of the 17 patients who received Conjugate 1 treatment): one
- Maximum tolerated dose (MTD), monotherapy ([7]; patients with advanced solid tumors, weekly for 3 of 4 weeks in a 28-day cycle): 175 mg/m^2
- Most common AEs ([7]; patients, Phase 1): nausea, fatigue, diarrhea, vomiting and alopecia
- Overall safety / adverse event profile ([7]; patients, Phase 1): safe and has an expected adverse (AE) event profile
